Laboratory results: patent US7875587B2, “Peptide analogues of GIP for treatment of diabetes, insulin resistance and obesity” (UUTECH Limited, priority 2004, dated 2011)
No end group written: not given here.

Key:
[1] = Degradation of GIP and analogues by human plasma (HPLC); assay type: in vitro ADME
Outline: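 Pooled plasma from six fasted humans was incubated with GIP or Tyr^1-glucitol GIP (10 μg) at 37 °C for 0 and 4 h in 50 mmol/l triethanolamine/HCl, pH 7.8; 4 h runs were also done with diprotin A […]. TFA-stopped samples were Sep-Pak cleaned, then run on reversed-phase HPLC (206 nm peak areas) with ESI-MS.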

[2] = tested on: BRIN-BD11 cells; experiment: Insulin release from clonal pancreatic BRIN-BD11 cells (Example 6); assay type: cell-based; conditions: 5.6 mmol/l glucose, 20 minutes incubation
Method: Cells and cell culture. Chinese hamster lung (CHL) fibroblasts stably transfected with the human GIP receptor (Gremlich, S. et al., 1995, Diabetes 44: 1202-1208) were cultured in DMEM tissue culture medium containing 10% (v/v) FBS, 1% (v/v) antibiotics (100 U/ml penicillin, 0.1 mg/ml streptomycin). Clonal pancreatic BRIN-BD11 cells (McClenaghan, N. H. et al., 1996, Diabetes 45: 1132-1140) were cultured using RPMI-1640 culture medium containing 10% (v/v) FBS, 1% (v/v) antibiotics (100 U/ml penicillin, 0.1 mg/ml streptomycin) and 11.1 mmol/l glucose. Cells were maintained at 37° C. in an atmosphere of 5% CO2 and 95% air using an LEEC incubator (Laboratory Technical Engineering, Nottingham, UK).
Insulin-release studies were carried out using clonal pancreatic BRIN-BD11 cells as described previously (O'Harte, F. P. M. et al., 2002, Diabetologia 45: 1281-1291). Briefly, BRIN-BD11 cells were seeded into 24-well plates at a density of 10^5 cells per well, and allowed to attach overnight at 37° C. Acute tests for insulin release were preceded by 40 minutes pre-incubation at 37° C. in 1.0 ml Krebs Ringer bicarbonate buffer supplemented with 1.1 mmol/l glucose. Test incubations were performed in the presence of 5.6 mmol/l glucose with a range of concentrations (10^−13 to 10^−6 mol/l) of GIP and GIP analogues. After 20 minutes incubation, the buffer was removed from each well and aliquots (200 μl) used for measurement of insulin.

[3] = tested on: obese diabetic ob/ob mice; experiment: Chronic (11 days, s.c.) (Pro3)GIP administration in obese diabetic ob/ob mice; assay type: in vivo, mouse
Method: Effects of chronic (Pro^3)GIP administration on plasma glucose, insulin and glycated HbA1c in obese diabetic ob/ob mice and normal mice. Obese diabetic ob/ob mice and normal control mice aged 8-12 weeks were randomly divided into groups which received once daily subcutaneous injections (17:00 h) of either saline (0.9% w/v NaCl) or (Pro^3)GIP (25 nmol/kg body weight in saline). After 11 days, treatment was ceased. Food intake and body weight were recorded daily. Blood samples were collected from the cut tip of the tail of conscious mice into chilled fluoride/heparin coated glucose microcentrifuge tubes (Sarstedt, Numbrecht, Germany). Blood samples were immediately centrifuged using a Beckman microcentrifuge (Beckman Instruments, UK) for 30 seconds at 13000 g prior to glucose, insulin and HbA1c determinations.
Effects of chronic treatment with (Pro^3)GIP on glucose tolerance in ob/ob mice and normal mice. Plasma glucose and insulin concentrations were measured following intraperitoneal administration of glucose (18 mmol/kg body weight) in ob/ob and normal mice treated with either saline (0.9% w/v NaCl) or (Pro^3)GIP (25 nmol/kg body weight/day) for 11 days. This test was repeated 9 days after cessation of chronic (Pro^3)GIP treatment. Blood samples were collected from the cut tip of the tail of conscious mice into chilled fluoride/heparin microcentrifuge tubes (Sarstedt, Numbrecht, Germany) immediately prior to injection and at 15, 30 and 60 minutes post injection. Blood samples were immediately centrifuged using a Beckman microcentrifuge (Beckman Instruments, UK) for 30 seconds at 13000 g and stored at −20° prior to glucose and insulin determinations.
Effects of chronic treatment with (Pro^3)GIP on the glucose lowering effects of exogenous insulin in ob/ob mice. The glucose lowering effects of insulin were evaluated by measuring plasma glucose response in 11-day saline (0.9% w/v NaCl) and (Pro^3)GIP (25 nmol/kg body weight/day) treated ob/ob mice following acute intraperitoneal administration of insulin (50 U/kg bodyweight). Blood samples were collected from the cut tip of the tail of conscious mice into chilled fluoride/heparin microcentrifuge tubes (Sarstedt, Numbrecht, Germany) immediately prior to injection and at 30 and 60 minutes post injection. Blood samples were immediately centrifuged using a Beckman microcentrifuge (Beckman Instruments, UK) for 30 seconds at 13000 g and stored at −20° prior to glucose determination.
Effects of chronic treatment with (Pro^3)GIP on pancreatic insulin content and associated islet hypertrophy in ob/ob mice. Pancreatic tissue was excised from non-fasted ob/ob mice after 11 days treatment with either saline (0.9% w/v NaCl) or (Pro^3)GIP (25 nmol/kg body weight/day). Pancreatic samples were individually wrapped in aluminium foil and snap frozen in liquid nitrogen. Individual excised pancreatic samples were then either embedded, sectioned and immunohistochemically stained for insulin or permeabilised for determination of pancreatic insulin content.
Determination of HbA1c, plasma glucose and insulin concentrations. HbA1c was measured in whole blood by ion-exchange high-performance liquid chromatography using the Menari HA-8140 kit (BIOMEN, Berkshire, UK). Plasma glucose was assayed by an automated glucose oxidase procedure using a Beckman Glucose Analyzer II (Stevens, J. F., 1971, Clinica Chemica Acta 32:199-201) and plasma insulin was determined by RIA (Flatt, P. R. et al., 1981, Diabetologia 20:573-577). Incremental areas under plasma glucose and insulin curves (AUC) were calculated using a computer generated program (CAREA) employing the trapezoidal rule (Burington, R. S., 1973, Handbook of Mathematical Tables and Formulae, New York, McGraw Hill) with baseline subtraction.

[4] = human, plasma, pH 7.8, % Intact peptide remaining after incubations with human plasma
[5] = 25 nmol/kg/day s.c., 11 days, vs saline

CC[C@H](C)[C@H](NC(=O)[C@H](CO)NC(=O)[C@H](Cc1ccc(O)cc1)NC(=O)[C@H](CC(=O)O)NC(=O)[C@H](CO)NC(=O)[C@@H](NC(=O)[C@H](Cc1ccccc1)NC(=O)[C@@H](NC(=O)CNC(=O)[C@H](CCC(=O)O)NC(=O)[C@H](C)NC(=O)[C@@H](N)Cc1ccc(O)cc1)[C@@H](C)O)[C@@H](C)CC)C(=O)N[C@@H](C)C(=O)N[C@@H](CCSC)C(=O)N[C@@H](CC(=O)O)C(=O)N[C@@H](CCCCN)C(=O)N[C@H](C(=O)N[C@@H](Cc1c[nH]cn1)C(=O)N[C@@H](CCC(N)=O)C(=O)N[C@@H](CCC(N)=O)C(=O)N[C@@H](CC(=O)O)C(=O)N[C@@H](Cc1ccccc1)C(=O)N[C@H](C(=O)N[C@@H](CC(N)=O)C(=O)N[C@@H](Cc1c[nH]c2ccccc12)C(=O)N[C@@H](CC(C)C)C(=O)N[C@@H](CC(C)C)C(=O)N[C@@H](C)C(=O)N[C@@H](CCC(N)=O)C(=O)N[C@@H](CCCCN)C(=O)NCC(=O)N[C@@H](CCCCN)C(=O)N[C@@H](CCCCN)C(=O)N[C@@H](CC(N)=O)C(=O)N[C@@H](CC(=O)O)C(=O)N[C@@H](Cc1c[nH]c2ccccc12)C(=O)N[C@@H](CCCCN)C(=O)N[C@@H](Cc1c[nH]cn1)C(=O)N[C@@H](CC(N)=O)C(=O)N[C@H](C(=O)N[C@H](C(=O)N[C@@H](CCC(N)=O)C(=O)O)[C@@H](C)O)[C@@H](C)CC)C(C)C)[C@@H](C)CC [GIP 1–42, reference compound]
degradation by human plasma [1]: readily metabolised
plasma degradation [1]: rapidly degraded
% Intact peptide remaining after incubations with human plasma ([1]; human, plasma, 0 h): 100%
remaining at 2 h, 20 µg/ml [1, 4]: 52 ± 1%
remaining at 4 h, 20 µg/ml [1, 4]: 23 ± 1%
remaining at 8 h, 20 µg/ml [1, 4]: 0%
insulin secretion compared to control [2]: dose-dependently stimulated insulin secretion

CCCCCCCCCCCCCCCC(=O)NCCCC[C@H](NC(=O)[C@H](Cc1c[nH]c2ccccc12)NC(=O)[C@H](CC(=O)O)NC(=O)[C@H](CC(N)=O)NC(=O)[C@H](CCCCN)NC(=O)[C@H](CCCCN)NC(=O)CNC(=O)[C@H](CCCCN)NC(=O)[C@H](CCC(N)=O)NC(=O)[C@H](C)NC(=O)[C@H](CC(C)C)NC(=O)[C@H](CC(C)C)NC(=O)[C@H](Cc1c[nH]c2ccccc12)NC(=O)[C@H](CC(N)=O)NC(=O)[C@@H](NC(=O)[C@H](Cc1ccccc1)NC(=O)[C@H](CC(=O)O)NC(=O)[C@H](CCC(N)=O)NC(=O)[C@H](CCC(N)=O)NC(=O)[C@H](Cc1c[nH]cn1)NC(=O)[C@@H](NC(=O)[C@H](CCCCN)NC(=O)[C@H](CC(=O)O)NC(=O)[C@H](CCSC)NC(=O)[C@H](C)NC(=O)[C@@H](NC(=O)[C@H](CO)NC(=O)[C@H](Cc1ccc(O)cc1)NC(=O)[C@H](CC(=O)O)NC(=O)[C@H](CO)NC(=O)[C@@H](NC(=O)[C@H](Cc1ccccc1)NC(=O)[C@@H](NC(=O)CNC(=O)[C@H](CCC(=O)O)NC(=O)[C@H](C)NC(=O)[C@H](Cc1ccc(O)cc1)NC(C)=O)[C@@H](C)O)[C@@H](C)CC)[C@@H](C)CC)[C@@H](C)CC)C(C)C)C(=O)N[C@@H](Cc1c[nH]cn1)C(=O)N[C@@H](CC(N)=O)C(=O)N[C@H](C(=O)N[C@H](C(=O)N[C@@H](CCC(N)=O)C(=O)O)[C@@H](C)O)[C@@H](C)CC [N-AcGIP(LysPAL^37)]
insulin secretion compared to control [2]: significantly stimulated glucose-induced insulin secretion

YAPGTFISDYSIAMDKIHQQDFVNWLLAQKGKKNDWKHNITQ [(Pro^3)GIP]
HbA1c ([3]; 25 nmol/kg/day s.c., 11 days): significant decreases
islet hypertrophy ([3]; 25 nmol/kg/day s.c., 11 days): partial correction
pancreatic insulin stores ([3]; 25 nmol/kg/day s.c., 11 days): significant decreases
plasma glucose concentration [3, 5]: decreases
plasma insulin concentration [3, 5]: decreases
persistence of beneficial effects after cessation ([3]; 9 days after cessation of treatment): reversed 9 days after cessation of treatment
food intake ([3]; 11 days): without any change
decrease in body weight ([3]; 11 days, did not achieve significance): ~7%
circulating insulin during glucose tolerance test ([3]; after 11 days treatment): without change
glucose tolerance ([3]; after 11 days treatment, i.p. glucose 18 mmol/kg): substantially improved
insulin sensitivity ([3]; after 11 days, exogenous insulin 50 U/kg i.p.): significant improvement of insulin sensitivity
